Assay results published in PMC11170954, “Effect of Peptide–Polymer Host–Guest Electrostatic Interactions on Self-Assembling Peptide Hydrogels Structural and Mechanical Properties and Polymer Diffusivity” (Biomacromolecules, 2024).
Ends that are not written are not given here.

Tests used:
[1] = Swelling / stability of hydrogels in excess water; type: physicochemical; settings: 12 mg mL^–1 peptide, 0.8 mg mL^–1 polymer where loaded, 1 mL gel + 3 mL HPLC grade water
Method: Hydrogels were prepared as described earlier at 12 mg mL^–1, and 1 mL was transferred into 5 mL cylindrical glass vials. Vials were gently tapped on the bench to eliminate any bubbles and obtained flat surfaces, and the height of the hydrogels was measured (day 0). Three milliliters of HPLC-grade water was then added on the top of the hydrogels. After being stored the samples for 10 days at 37 °C, the vials were inverted, and the height of the hydrogels was measured once again (day 10). The swelling ratio (Q) was defined as (H1 – H0)/H0, where H0 is the height of the hydrogel at day 0 and H1 is the height of the hydrogel at day 10.

[2] = test system: immortalized human bone marrow-derived MSC line (Y201); type: cell-based
Method: (§1) 3T3 mouse fibroblast and an immortalized human bone marrow-derived MSC line (Y201)[37] were used to assess the cytocompatibility of the hydrogels. The 3T3 cells were cultured in Dulbecco’s Modified Eagle’s Medium (DMEM) (Gibco), 1% penicillin–streptomycin (Sigma–Aldrich, P0781), and 10% fetal bovine serum (Sigma–Aldrich, F9665), while the MSCs were cultured in Minimum Essential Medium Eagle (αMEM) (Sigma-Aldrich, M4526), 10% fetal bovine serum (Sigma–Aldrich, F7524), 1% antibiotic/antimycotic solution (Sigma–Aldrich, A5955), 1% GlutaMAX (Life Technologies, 35050038), and 0.01% L-ascorbic acid 2-phosphate (Sigma–Aldrich, A8960). Cells were harvested when reaching 70–80% confluency. For cell counting, the cell suspension was mixed (1:1 ratio) with a 0.4% trypan blue solution (Bio-Rad) and cell counted using an automated cell counter (Cellometer Auto 1000, Nexcelom).
(§2) Hydrogel samples were removed from the fridge (4 °C) and prewarmed to 37 °C. Cells were encapsulated into the hydrogel by gentle pipetting to ensure an evenly mixed sample, at a final density of 1 × 10^6 cells mL^–1. 100 μL of cell-laden hydrogel was then dispensed into ThinCert inserts (Greiner Bio-One) in 24-well plates and cell culture medium (1 mL) was added into each well/insert. 250 μL was added to the top of the hydrogel surface in the inset, and 750 μL was added to the well. Cell culture plates were then incubated at 37 °C with 5% of the CO2. The growth medium was changed every 20 min during the first hour of the experiment and subsequently every 2 days.
To assess cell viability in the hydrogels, the live/dead assay (Thermo Fisher Scientific) was used. The cell culture medium was removed, and the samples were washed 3 times with DPBS. A working solution of staining reagent was prepared in DPBS (4 μM ethidium homodimer I and 2 μM calcein-AM) and 100 μL was added to the top of the hydrogel surfaces (in the insets) and a further 600 μL into the wells. […]

[3] = Small-angle X-ray scattering of hydrogels; type: physicochemical; settings: for fibers cross-section radius of gyration, Rσ: SAXS Guinier fit, hydrogels 6 mg mL^–1, pH 7; for estimated fiber diameter, df: from Rσ assuming cylindrical geometry
Method: SAXS experiments were performed on beamline I22 at the diamond light source (DLS) synchrotron (Didcot, UK).[31] The energy of the beam was 12.4 keV, corresponding to an X-ray wavelength of 0.1 nm. Quartz capillaries (1.5 mm outer diameter and 0.01 mm wall thickness) from Capillary Tube Supplies Ltd. (Bodmin, UK) were used as sample holders. The samples were prepared as described earlier and injected into the capillaries using a syringe. The sample-to-detector distance was fixed to 5.77 m, corresponding to an accessible momentum transfer vector range of 0.1 nm^–1 < q = (4π/λ) sin(θ/2) < 3.0 nm^–1, where θ is the scattering angle and λ is the wavelength of the incident photons. Calibration of the SAXS detector (Pilatus P3–2M, Dectris, Switzerland) was performed using silver behenate powder, and data were collected as 10 × 100 ms frames. Data were reduced using the Dawn software suite available from DLS.[32] The 2D isotropic scattering patterns were corrected for the detector response, dark current background, and sample transmission and then azimuthally integrated to generate 1D scattering patterns. Under these conditions, the sample coherent normalized scattering intensity IN(q) is [drawing 2] 1 where Ip(q) is the normalized intensity scattered by the sample, Is(q) is the normalized intensity scattered by the solvent in our case HPLC grade water, Cp is the peptide concentration in g cm^–3, and Ib is the background scattering originating mainly from the incoherent scattering of the peptides. Is(q) was obtained by measuring the scattering of the solvent, HPLC grade water, and Ib was estimated using the Porod law that gives the scattered intensity of a two-phase system at high q values: [drawing 3] 2 where Kp is the Porod constant. Ib was estimated by fitting the last 40 data points of the 1D scattering patter using a Porod plot [q^4I(q) vs q^4].[33]−[36]
The formation of fibers and fibrillar entangle networks was confirmed by SAXS and TEM. […] From a Guinier representation, ln qI(q) vs q^2, the fibers cross-section radius of gyration, Rσ, can be obtained. Indeed, it has been shown that for thin rod-like structures for qRσ < 1 the scattering intensity can be written as[34],[39] [drawing 4] 3
From the fitting of the linear region, Rσ values of 1.2 ± 0.2 nm for K(FEFK)2 and 1.4 ± 0.2 nm for E(FKFE)2 were obtained. Assuming a cylindrical geometry, Rσ can be related to the fiber diameter, df, through: [drawing 5] 4

[4] = Peptide titration with NaOH (pKa-like transitions, net charge assignment); type: physicochemical; settings: stepwise NaOH addition to peptide solution in HPLC grade water; for first pKa-like transition (deprotonation of glutamic acid side groups), pH: start pH ∼3.2, transition observed up to this pH
Method: Peptide titration experiments were performed by adding 0.1 or 0.5 M NaOH solutions in 1–2 μL steps to a 1 mL HPLC-grade water peptide solution with a 2 mg mL^–1 starting concentration. After each NaOH addition, the samples were vigorously agitated using a vortex to ensure homogeneous mixing and the pH was measured using a Fisherbrand Hydrus 300 benchtop pH meter.
As stated in the introduction, these two peptides were designed to be “symmetrical” in relation to the position and distribution of their anionic (COOH/COO^–) and cationic (NH3^+/NH2) groups and to carry an overall theoretical net charge modulus of 1 at pH 7. As shown in our previous work, self-assembly can induce a shift in pKa of these ionic groups depending on the surrounding environment created.[26],[38] To investigate the effect of self-assembly on pKa of these groups, titration experiments were performed on each peptide at a […] concentration. The resulting curves are presented in Figure 2A, B. Both peptides were purchased as HCl salts; therefore, when dissolved in water low pH, ∼ 3.2, solutions were obtained. Upon addition of NaOH a first pKa-like transition was observed up to pH 5 for K(FEFK)2 and pH 4.5 for E(FKFE)2. This first transition is associated in both cases with deprotonation of the glutamic acid side groups.

[5] = Hydrogel behaviour in cell culture media without cells; type: physicochemical; settings: after 14 days in cell culture media (DMEM, αMEM), no cells, 37 °C
Method: Rheological measurements were performed using a Discovery Hybrid 2 (DHR-2) rheometer from TA Instruments (New Castle, Delaware, USA) using a 20 mm parallel plate geometry and a 500 μm gap. Samples were prepared as described earlier. Hydrogels (200 μL) were pipetted onto the rheometer’s static bottom plate and the rheometer top plate lowered to the desired gap size. For hydrogel in cell culture inserts and conditioned with cell culture media (see below), the bottom membranes of the insets were removed, and the hydrogels deposited on the rheometer’s static bottom plate. Samples were covered with a solvent trap to avoid evaporation and left to equilibrate at 37 °C for 180 s before the experiments. Strain sweep experiments were performed at 1 Hz in the 0.01–100% strain range. The shear-thinning and recovery (i.e., injectability) experiments were performed by applying sequentially a low shear strain (0.2%) for 5 min followed by a high shear strain (1000%) for 1 min and again a low shear strain (0.2%) for 5 min.
Hydrogel samples were removed from the fridge (4 °C) and prewarmed to 37 °C. Cells were encapsulated into the hydrogel by gentle pipetting to ensure an evenly mixed sample, at a final density of 1 × 10^6 cells mL^–1. 100 μL of cell-laden hydrogel was then dispensed into ThinCert inserts (Greiner Bio-One) in 24-well plates and cell culture medium (1 mL) was added into each well/insert. […]

TEM fiber width analysis = type: physicochemical; settings: log-normal fit, 700 fibers, cut-off 20 nm, hydrogels 12 mg mL^–1 peptide (0.8 mg mL^–1 polymer where loaded), pH 7, diluted 20-fold
Method: Hydrogels were prepared as described earlier and diluted 20-fold using HPLC-grade water. The samples were vigorously mixed with a vortex to separate as much as possible the fibers. A carbon-coated copper grid (400 mesh grid Electron Microscopy Sciences, Hatfield, Pennsylvania, USA) was glow discharged and charged negatively. The carbon copper grid was then placed sequentially on a 10 μL sample droplet for 60 s, a 10 μL droplet of HPLC grade water for 10 s three times, a 10 μL droplet of 5% uranyl acetate solution for 30 s, and finally, on a 10 μL droplet of HPLC grade water for 10 s. After each step, excess liquid was drained off using lint-free tissue (90 mm Whatman 1). The grid was then left to air-dry for 2–5 min. TEM images were taken using an FEI Tecnai12 BioTwin transmission electron microscope running at 100 kV and equipped with a Gatan Orius SC1000A CCD camera. Fiber width analysis was performed by measuring randomly the widths of 700 fiber (cut-off size 20 nm) using ImageJ software across at least three TEM images for each sample.

[6] = test system: immortalized human bone marrow-derived MSC line (Y201); experiment: 3D cell culture, PicoGreen assay; type: cell-based; settings: MSCs, 3D culture, over 14 days
Method: as §1, §2
(§3) To quantify the number of cells present in the hydrogels, the amount of cells’ dsDNA was quantified via PicoGreen assay (Invitrogen, Thermo Fisher Scientific). […] When ready for analysis, the samples were removed from the −20 °C freezer, thawed at room temperature, and agitated until homogeneous. […] The assay plate was incubated at room temperature in the dark for 5 min then measured using a plate reader (CLARIOstar), using fluorescence detection with excitation at 480–512 nm and emission at 520 nm. […]

3T3 mouse fibroblast = experiment: 3D cell culture, PicoGreen assay; type: cell-based; settings: 3T3 fibroblasts, 3D culture, 14 days; hydrogel prepared at 20 mg mL^–1
Method: as §1, §2, §3

| Sequence | hydrogel stability in excess water ([1]; 10 days, 37 °C) | cell viability (live/dead) [2] | hydrogel stability in MSC culture ([2]; after 14 days of 3D culture with MSCs) | fibers cross-section radius of gyration, Rσ [3] [nm] | estimated fiber diameter, df [3] [nm] | pKa-like transition assigned to deprotonation of lysine side chain amino groups, pH from which upward [4] [pH] | first pKa-like transition (deprotonation of glutamic acid side groups), pH [4] [pH] | shift of terminal NH3+ apparent pKa vs theoretical [unit] | hydrogel integrity when extracted from cell culture inserts [5] | fiber widths distribution maximum (TEM fiber width analysis) [nm] | change in cell number (PicoGreen) [6] | swelling ([1]; day 10, 37 °C) | cell proliferation (cell number, PicoGreen) (3T3 mouse fibroblast) |
| --- | --- | --- | --- | --- | --- | --- | --- | --- | --- | --- | --- | --- | --- |
| EFKFEFKFE [E(FKFE)2] | unstable and after 10 days dissolved | higher | dissolve | 1.4 ± 0.2 | 4.0 ± 0.5 | ≥ 10.0 | ≤ 4.5 | 1 | some loss of integrity and loss of shape | 4.5 ± 0.9 | decrease in cell number | – | – |
| KFEFKFEFK [K(FEFK)2] | – | good | – | 1.2 ± 0.2 | 3.3 ± 0.5 | ≥ 9.5 | ≤ 5 | – | keep their integrity and shape | 4.9 ± 1.0 | no significant change in cell number | ~30 % (v/v) | Significant proliferation |
